According to US20220204953A1, “Mutant of Acid Phosphatase and Application Thereof” (priority 2021, published 2022):
Residue numbers refer to the chain shown, from its start.

Columns and labels:
Format in all cases: biochemical
Conditions in all cases: 30° C., pH 5.0, sodium pyrophosphate, 1-1,000 mM
[1] = target: T1, Pseudomonas aeruginosa acid phosphatase PaAPase, wild type (WT), SEQ ID NO: 1 (Pseudomonas aeruginosa, UniProt A0A0D6FFE3); experiment: Determination of kinetic parameters (phosphorylation of L-ascorbic acid to L-ascorbate-2-phosphate), wild type
T1 construct: 217 aa form
T1 sequence (A0A0D6FFE3 entry or part of it): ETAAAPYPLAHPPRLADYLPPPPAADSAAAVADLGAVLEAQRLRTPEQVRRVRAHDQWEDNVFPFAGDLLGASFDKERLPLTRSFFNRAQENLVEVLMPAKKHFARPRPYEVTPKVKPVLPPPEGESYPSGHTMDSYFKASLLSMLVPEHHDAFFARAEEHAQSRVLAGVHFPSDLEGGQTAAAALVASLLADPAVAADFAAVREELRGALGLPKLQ
Protocol: (§1) The activities of PaAPase and mutants thereof were determined with high-performance liquid chromatography. 500 μL of a substrate solution (500 mM L-ascorbic acid and 500 mM sodium pyrophosphate) (pH 5.0) and 5 μL of the enzyme liquid react at 30° C. for 30 min, and 95 μL of 42% phosphoric acid was added to terminate the reaction, where an activity unit was defined as the amount of enzyme required for producing 1 μmol of L-ascorbate-2-phosphate within 1 min (Table 3).
(§2) The kinetic parameters, including Vmax, Km and kcat, were calculated by measuring the generation rates of initial products of L-ascorbic acid and L-ascorbate-2-phosphate (1-1,000 mM) at different concentrations at 30° C. and under other conditions consistent with those of the determination of specific enzyme activity.

[2] = target: T2, Pseudomonas aeruginosa acid phosphatase PaAPase variant PaAPaseMu1 (D135R), SEQ ID NO: 19 (Pseudomonas aeruginosa, UniProt A0A0D6FFE3, D159R); experiment: Determination of kinetic parameters (phosphorylation of L-ascorbic acid to L-ascorbate-2-phosphate), Mu1
T2 construct: 217 aa form
T2 sequence (A0A0D6FFE3 25-241 D159R): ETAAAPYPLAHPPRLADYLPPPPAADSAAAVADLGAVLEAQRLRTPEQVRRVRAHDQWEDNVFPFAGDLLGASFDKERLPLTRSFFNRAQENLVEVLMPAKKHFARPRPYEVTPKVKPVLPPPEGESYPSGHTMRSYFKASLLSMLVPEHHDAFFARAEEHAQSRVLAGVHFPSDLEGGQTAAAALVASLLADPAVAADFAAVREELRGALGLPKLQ
Protocol: as §1, §2

[3] = target: T3, Pseudomonas aeruginosa acid phosphatase PaAPase variant PaAPaseMu2 (W58P/D135R), SEQ ID NO: 21 (Pseudomonas aeruginosa, UniProt A0A0D6FFE3, D159R/W82P); experiment: Determination of kinetic parameters (phosphorylation of L-ascorbic acid to L-ascorbate-2-phosphate), Mu2
T3 construct: 217 aa form
T3 sequence (A0A0D6FFE3 25-241 W82P/D159R): T2 sequence (A0A0D6FFE3 25-241 D159R) with W58P
Protocol: as §1, §2

[4] = target: T4, Pseudomonas aeruginosa acid phosphatase PaAPase variant PaAPaseMu3 (Q57H/W58P/D135R), SEQ ID NO: 22 (Pseudomonas aeruginosa, UniProt A0A0D6FFE3, D159R/Q81H/W82P)
T4 construct: 217 aa form
T4 sequence (A0A0D6FFE3 25-241 Q81H/W82P/D159R): T2 sequence (A0A0D6FFE3 25-241 D159R) with Q57H, W58P

In the case of `O=C1O[C@H]([C@@H](O)CO)C(O)=C1O` [L-ascorbic acid], the kcat [1] is reported as 16.3 s⁻¹, the kcat/Km [1] is reported as 3.38 min⁻¹ mM⁻¹ and the kcat [2] is reported as 18.7 s⁻¹. It also gave a kcat/Km [2] of 4.58 min⁻¹ mM⁻¹, a kcat [3] of 19.2 s⁻¹ and a kcat/Km [3] of 5.17 min⁻¹ mM⁻¹. It also gave a kcat [4] of 20.1 s⁻¹ and a kcat/Km [4] of 5.72 min⁻¹ mM⁻¹.
